Experimental data taken from ChEMBL document CHEMBL1201862, “PubChem BioAssay data set” (2004).
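Test compounds were applied to cells in 96-well plates for 48 hours at 5 doses. GI50: concentration for 50% inhibition of growth.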 Active and inactive are the calls of the source. Cut-off read from the data, not from the text of the source: active = GI50 up to about 1.1 µM and inactive = higher.

Key:
Assay in all cases: growth of human tumour cells (NCI), 48 h
SF-268 = test system: SF-268
HT-29 = test system: HT-29
MDA-N = test system: MDA-N
T47D = test system: T47D
SNB-75 = test system: SNB-75
SK-MEL-5 = test system: SK-MEL-5
CCRF-CEM = test system: CCRF-CEM
MDA-MB-435 = test system: MDA-MB-435
Malme-3M = test system: Malme-3M
NCI-H460 = test system: NCI-H460
SNB-19 = test system: SNB-19
HOP-92 = test system: HOP-92
SW-620 = test system: SW-620
NCI/ADR-RES = test system: NCI/ADR-RES
HL-60 = test system: HL-60
MOLT-4 = test system: MOLT-4
786-0 = test system: 786-0
SF-295 = test system: SF-295
ACHN = test system: ACHN
RPMI-8226 = test system: RPMI-8226

SMILES | GI50 (SF-268) | GI50 (HT-29) | GI50 (MDA-N) | GI50 (T47D) | GI50 (SNB-75) | GI50 (SK-MEL-5) | GI50 (CCRF-CEM) | GI50 (MDA-MB-435) | GI50 (Malme-3M) | GI50 (NCI-H460) | GI50 (SNB-19) | GI50 (HOP-92) | GI50 (SW-620) | GI50 (NCI/ADR-RES) | GI50 (HL-60) | GI50 (MOLT-4) | GI50 (786-0) | GI50 (SF-295) | GI50 (ACHN) | GI50 (RPMI-8226)
CC1=NNC(=O)C1C1CC(c2c[nH]c3ccccc23)=NN(C(N)=O)C1=O (stereo not given) | > 100 µM (inactive) | > 100 µM (inactive) | 68.7 µM (inactive) | 61 µM (inactive) | 87.3 µM (inactive) | 82 µM (inactive) | 31 µM (inactive) | 56 µM (inactive) | > 100 µM (inactive) | 62.4 µM (inactive) | 75 µM (inactive) | > 100 µM (inactive) | 92.9 µM (inactive) | > 100 µM (inactive) | 29 µM (inactive) | 33.7 µM (inactive) | > 100 µM (inactive) | 61.2 µM (inactive) | 97.9 µM (inactive) | 30.8 µM (inactive)
CC1(c2ccc(Cl)cc2)CC(c2ccc(Cl)cc2)=C(C#N)C(=C(C#N)C#N)N1 (stereo not given) | 7.83 µM (inactive) | 12.8 µM (inactive) | 19 µM (inactive) | 12.6 µM (inactive) | 19.4 µM (inactive) | 13.9 µM (inactive) | 3.11 µM (inactive) | 18 µM (inactive) | 15.7 µM (inactive) | 22.9 µM (inactive) | 17.5 µM (inactive) | 3.25 µM (inactive) | 12 µM (inactive) | 19.3 µM (inactive) | 19.7 µM (inactive) | 6.81 µM (inactive) | 11.1 µM (inactive) | 14.7 µM (inactive) | 14.5 µM (inactive) | 8.77 µM (inactive)
COC1/C=C/C(C)C(O)CC(O)/C=C/C(C)C(C(C)C(OC)C(C)CCC(=O)C(C)C(C/C=C/N(C)C=O)OC)OC(=O)/C=C/C=C(\C)CC(OC)CC2=CC(=O)O[C@@H](C(C)C(OC)C1)[C@H]2O (stereo not given in full) | 0.0233 µM (active) | < 0.005 µM (active) | < 0.005 µM (active) | 0.0219 µM (active) | < 0.005 µM (active) | < 0.005 µM (active) | 0.00687 µM (active) | 0.0105 µM (active) | < 0.005 µM (active) | < 0.005 µM (active) | 0.0168 µM (active) | 0.00612 µM (active) | < 0.005 µM (active) | 0.00656 µM (active) | < 0.005 µM (active) | 0.0163 µM (active) | < 0.005 µM (active) | < 0.005 µM (active) | < 0.005 µM (active) | 0.00783 µM (active)
CC(C)=CC(O)C/C(C)=C/CC/C(C)=C/CCC1(C)C(CCCO)/C(=C(/C)C=O)CCC1(C)O (stereo not given) | 40.5 µM (inactive) | 26.1 µM (inactive) | 22.1 µM (inactive) | 61.9 µM (inactive) | > 100 µM (inactive) | 43.9 µM (inactive) | 30.5 µM (inactive) | 31 µM (inactive) | 34 µM (inactive) | 25.6 µM (inactive) | 97.7 µM (inactive) | 22.8 µM (inactive) | 40.6 µM (inactive) | 65.3 µM (inactive) | 23 µM (inactive) | 24.7 µM (inactive) | 35.7 µM (inactive) | 28.8 µM (inactive) | 20.6 µM (inactive) | 21.3 µM (inactive)
